From paper PMC2916918, “Inorganic pyrophosphatase in uncultivable hemotrophic mycoplasmas: identification and properties of the enzyme from Mycoplasma suis” (BMC Microbiology, 2010)

Molecular target: T1, recombinant M. suis sPPase (rPPase) (Mycoplasma suis, UniProt C4RA40)
T1 construct: gene ppa; tetramer (80 kDa) inferred from immunoblot of native cells only
T1 sequence (C4RA40 1-164): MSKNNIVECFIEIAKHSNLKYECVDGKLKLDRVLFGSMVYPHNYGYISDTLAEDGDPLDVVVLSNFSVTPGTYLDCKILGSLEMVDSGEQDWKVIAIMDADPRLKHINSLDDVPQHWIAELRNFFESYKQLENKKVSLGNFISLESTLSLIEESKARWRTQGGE
Test: phosphate release, molybdate/ascorbic acid colorimetry (Saheki)
Assay type: biochemical
Conditions: 50 mM MgCl2, pH 9.0, varied PPi (Figure 4E); standard assay: 5 mM Mg2+, 100 mM Tris pH 7.5, 1 mM PPi, 55 °C

O=P(O)(O)OP(=O)(O)O [PPi]
phosphate release, molybdate/ascorbic acid colorimetry (Saheki): Activity of M. suis rPPase using different PPi concentrations.
